From US12570606B2, “Myeloperoxidase imaging agents” (The General Hospital Corporation, priority 2016, dated 2026)

What was measured:
[1] = biological target: T1, MPO (Mus musculus, UniProt P11247); test: CFA paw inflammation PET imaging and treatment by MPO inhibitor PF-1355; assay type: in vivo; design: from tissue; host or cells: inflamed forepaw of living mice (CFA); details: forepaw, 24 h after CFA emulsion, scan 2 h after tracer
T1 sequence (P11247 139-718): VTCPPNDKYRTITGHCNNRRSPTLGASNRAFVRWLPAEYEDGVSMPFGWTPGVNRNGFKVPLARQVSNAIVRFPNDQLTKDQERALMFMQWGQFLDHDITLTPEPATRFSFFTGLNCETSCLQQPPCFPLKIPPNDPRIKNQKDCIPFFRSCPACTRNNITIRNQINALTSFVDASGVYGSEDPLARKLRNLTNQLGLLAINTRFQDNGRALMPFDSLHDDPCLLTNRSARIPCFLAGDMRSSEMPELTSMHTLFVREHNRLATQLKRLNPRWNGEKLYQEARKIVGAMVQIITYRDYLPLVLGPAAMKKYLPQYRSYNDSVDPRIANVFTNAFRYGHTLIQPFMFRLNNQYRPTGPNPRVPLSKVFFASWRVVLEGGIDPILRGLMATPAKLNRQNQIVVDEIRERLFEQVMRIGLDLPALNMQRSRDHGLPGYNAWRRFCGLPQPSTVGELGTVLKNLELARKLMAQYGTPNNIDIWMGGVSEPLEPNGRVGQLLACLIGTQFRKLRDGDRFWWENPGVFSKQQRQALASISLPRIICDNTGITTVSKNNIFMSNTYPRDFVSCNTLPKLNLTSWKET
Protocol: Each pair contained one treated and one untreated, number of pairs, n=3. The 1/1 emulsion of CFA/PBS (40 μL) was injected subcutaneously on the dorsal side of one forepaw under isoflurane anesthesia, and PBS (40 μL) was injected on the other forepaw as control. After 1 h, the treated group was given PF-1355 (50 mg/kg) by gavage, then treated every 6 h for another 3 times, and the control group was treated with vehicle (10 mL/kg) accordingly. After 24 h, 300-600 uCi of Compound 9 was injected intravenously. After another 2 h, each pair of the mice was scanned side by side.
After validating the efficacy of the MPO Compound 9 in matrigel experiments, the specificity of the agent in inflammation was investigated. Complete Freund's Adjuvant (CFA) or its emulsion can cause inflammation when injected subcutaneously to the animal. The CFA emulsion was injected to one dorsal side of the forepaw of the mouse and the other side was injected with PBS. After 24 h, Compound 9 was injected intravenously and scanned 2 h after injection. […] To further verify the specificity of the MPO Compound 9, the mice were treated with MPO inhibitor PF-1355 1 h after CFA emulsion injection and continuously every 6 h afterwards for 4 times before injecting the Compound 9. The control group was treated with vehicle after CFA injection. Then each pair of the mice from treated and untreated groups were scanned.

[2] = biological target: T2, MPO (Homo sapiens, UniProt P05164); test: MPO-PET matrigel implantation imaging in mice; assay type: in vivo, mouse
T2 sequence (P05164 49-745): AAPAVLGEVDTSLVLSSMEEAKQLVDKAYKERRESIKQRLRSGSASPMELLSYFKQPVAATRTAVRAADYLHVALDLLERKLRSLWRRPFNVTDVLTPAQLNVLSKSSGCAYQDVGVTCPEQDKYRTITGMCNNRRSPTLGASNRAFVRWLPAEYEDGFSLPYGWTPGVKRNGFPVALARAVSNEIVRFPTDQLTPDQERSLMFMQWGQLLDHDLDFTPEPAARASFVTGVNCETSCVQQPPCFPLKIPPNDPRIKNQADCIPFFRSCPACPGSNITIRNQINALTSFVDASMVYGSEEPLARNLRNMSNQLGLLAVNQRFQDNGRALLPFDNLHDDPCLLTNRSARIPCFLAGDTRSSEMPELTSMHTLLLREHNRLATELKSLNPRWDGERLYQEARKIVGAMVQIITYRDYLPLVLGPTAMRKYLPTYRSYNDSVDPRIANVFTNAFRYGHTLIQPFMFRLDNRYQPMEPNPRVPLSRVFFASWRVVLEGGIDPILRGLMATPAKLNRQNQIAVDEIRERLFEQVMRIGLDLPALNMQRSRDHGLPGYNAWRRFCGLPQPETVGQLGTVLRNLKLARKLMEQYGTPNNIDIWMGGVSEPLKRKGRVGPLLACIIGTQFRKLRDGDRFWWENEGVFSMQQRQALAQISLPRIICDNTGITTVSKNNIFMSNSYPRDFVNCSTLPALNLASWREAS
Protocol: 300 μL of 1:1 mixture of matrigel and minimal essential medium (MEM) containing GOX and/or different concentrations of MPO (0, 15 μL, 30 μL) was injected subcutaneously into the ventral aspect of the thighs of the mouse. After 30 min, 300-600 μCi of MPO Compound 9 was injected intravenously. After 2 h, the mice were scanned using PET scanning.
To validate the efficacy of the MPO PET agents for in vivo applications, matrigel implantation experiments were performed by embedding MPO in matrigel along with glucose oxidase (GOX) as H2O2 donor. Matrigel is a gelatinous protein mixture that is liquid at 0° C. but forms a gel at body temperature while remaining diffusible to molecules from the bloodstream when injected into living animals (see e.g., Chen et al, Radiology, 2006, 240(2):473-481). The MPO/matrigel mixtures were injected subcutaneously to the thighs of the mice followed by injection of the MPO PET tracers 30 min later. […] The signal of MPO side was around 1.7 fold higher compared to that of control side.
To verify the specificity of Compound 9 over MPO, different concentrations of MPO (0, 15 μL, 30 μL) were embedded in matrigel for the implantation experiments.

- PET signal of CFA side versus vehicle (PBS) injected side [1]: 4 fold
- PET signal versus MPO concentration ([2]; MPO 0, 15 μL, 30 μL embedded in matrigel): linear increase in signal
- PET signal of MPO side compared to control side ([2]; matrigel with GOX+MPO vs GOX only in mouse thighs, scan 2 h after i.v. tracer): around 1.7 fold
Structure (SMILES): O=C(Cc1c[nH]c2ccc(O)cc12)NC(Cc1c[nH]c2ccc(O)cc12)C(=O)NCCOCCOCC[18F] (stereo not shown) [Compound 9]
- Background, organ uptake and defluorination ([2]; matrigel PET imaging in mice): high ratio of signal to background, lower liver and heart uptake and no observed defluorination
